Data from patent US20060009358A1, “Synergistically acting herbicidal mixtures” (priority 2002, published 2006).

Columns and labels:
Experiment in all cases: Herbicidal action, post-emergence treatment, greenhouse (damage 0-100% vs untreated control)
Type in all cases: in vivo
Abutilon theophrasti = tested on: Abutilon theophrasti
Description: (§1) The mixtures according to the invention were applied pre- or post-emergence (foliar treatment). The herbicidal compounds of component B and, if desired, of component C were applied in the formulation in which they are present as commercially available product.
(§2) The herbicidally active compounds of components A), B) and, if desired, C) were applied in succession or jointly, in the latter case in some cases as a tank mix and in some cases as a ready-mix, in the form of emulsions, aqueous solutions or-suspensions, the vehicle being water (300-400 l/ha). In the case of the field trials, application was effected with the aid of a mobile plot sprayer.
(§3) The test period extended over 3 to 8 weeks, and the stands were also observed at later points in time.
(§4) Damage by the herbicidal compositions was evaluated with reference to a scale of 0% to 100% in comparison with untreated control plots. 0 means no damage and 100 means complete destruction of the plants.
(§5) In these examples, the value E at which only an additive effect of the individual active ingredients is to be expected was calculated by the method of S. R. Colby (Calculating synergistic and antagonistic responses of herbicide combinations, Weeds 15, 20 pp (1967)).
(§6) This was done using the formula [formula] where • X=Percentage of the herbicidal action of component X) at an application rate of x; • Y=Percentage of the herbicidal action of component Y) at an application rate of y; • E=expected herbicidal action of component X)+Y) at rates of application x+y (in %).
(§7) If the value observed exceeds the value E calculated in accordance with Colby's formula, then synergism is present.

Echinochloa crus-galli = conditions: Table 5, application rate 3.91 g/ha ai
Description: as §1, §2, §3, §4, §5, §6, §7

Galium aparine = tested on: Galium aparine
Description: as §1, §2, §3, §4, §5, §6, §7

Setaria faberi = tested on: Setaria faberi
Description: as §1, §2, §3, §4, §5, §6, §7

Brachiaria plantaginea = conditions: Table 8, application rate 125 g/ha ai
Description: as §1, §2, §3, §4, §5, §6, §7

Pharbitis purpurea = conditions: Table 11, application rate 31.2 g/ha ai
Description: as §1, §2, §3, §4, §5, §6, §7

Polygonum persicaria = tested on: Polygonum persicaria
Description: as §1, §2, §3, §4, §5, §6, §7

[1] = Table 3, application rate 3.91 g/ha ai
[2] = Table 4, application rate 7.81 g/ha ai

SMILES: Cc1ccn2nc(S(=O)(=O)Nc3c(F)cccc3F)nc2n1 [IIa, flumetsulam]
- Abutilon theophrasti Damage (Abutilon theophrasti; [1]): 60%
- Echinochloa crus-galli Damage (Echinochloa crus-galli): 25%
- Galium aparine Damage (Galium aparine; [2]): 80%

SMILES: O=C(O)c1nc(Cl)ccc1Cl [IIb, clopyralid]
- Setaria faberi Damage (Setaria faberi; Table 6, application rate 250 g/ha ai): 20%
- Setaria faberi Damage (Setaria faberi; Table 7, application rate 125 g/ha ai): 20%

SMILES: Cc1c(C(=O)c2cnn(C)c2O)ccc(S(C)(=O)=O)c1C1=NOCC1 [Ia.29, 4-[2-methyl-3-(4,5-dihydroisoxazol-3-yl)-4-methylsulfonyl-benzoyl]-1-methyl-5-hydroxy-1H-pyrazole]
- Abutilon theophrasti Damage (Abutilon theophrasti; [1]): 60%
- Galium aparine Damage (Galium aparine; [2]): 70%

SMILES: CCNc1nc(Cl)nc(NC(C)C)n1 [atrazine]
- Abutilon theophrasti Damage (Abutilon theophrasti; Table 8, application rate 125 g/ha ai): 30%
- Brachiaria plantaginea Damage (Brachiaria plantaginea): 25%
- Galium aparine Damage (Galium aparine; Table 9, application rate 125 g/ha ai): 60%
- Pharbitis purpurea Damage (Pharbitis purpurea): 60%
- Polygonum persicaria Damage (Polygonum persicaria; Table 10, application rate 62.5 g/ha ai): 40%
- Polygonum persicaria Damage (Polygonum persicaria; Table 12, application rate 31.2 g/ha ai): 30%
- Setaria faberi Damage (Setaria faberi; Table 11, application rate 31.2 g/ha ai): 30%
